Results as given in PubChem BioAssay (NCI).
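GI50 marks 50% less growth. TGI marks complete inhibition of growth.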

What was measured:
Assay in all cases: NCI tumour cell line growth inhibition, 384-well format
[1] = tested on: HOP-62 NSCLC
[2] = tested on: SK-MEL-5 melanoma
[3] = tested on: NCI-H322M lung
[4] = tested on: MOLT-4 leukemia
[5] = tested on: UO-31 renal
[6] = tested on: SK-MEL-28 melanoma
[7] = tested on: M14 melanoma
[8] = tested on: SNB-75 CNS
[9] = tested on: SNB-19 CNS
[10] = tested on: K-562 leukemia
[11] = tested on: ACHN renal
[12] = tested on: MDA-MB-435 melanoma
[13] = tested on: HCT-116 colon

COCc1c(-c2cc3cc(C)cc(OC)c3s2)c2c(N)ncnn2c1CN1CCNC(=O)C1
GI50 [1]: 12.8 µM
TGI [1]: > 100 µM
GI50 [2]: 7.29 µM
TGI [2]: 31.3 µM
GI50 [3]: 3.89 µM
TGI [3]: 36.8 µM
GI50 [4]: 2680 nM
TGI [4]: 8.5 µM
GI50 [5]: 9.39 µM
TGI [5]: > 100 µM
GI50 [6]: 28.7 µM
TGI [6]: > 100 µM
GI50 [7]: 4.75 µM
TGI [7]: 41 µM
GI50 [8]: 1630 nM
TGI [8]: 20.5 µM
GI50 [9]: 18.5 µM
TGI [9]: > 100 µM
GI50 [10]: 20.1 µM
TGI [10]: > 100 µM
GI50 [11]: 6.15 µM
TGI [11]: > 100 µM
GI50 [12]: 11.8 µM
TGI [12]: 72.2 µM
GI50 [13]: 7.4 µM
TGI [13]: > 100 µM
